Each structure is given as a SMILES string. The source made the active and inactive calls.

Some targets named below: Procathepsin L (Homo sapiens, UniProt P07711); Aspartyl aminopeptidase (Plasmodium falciparum 3D7, UniProt Q8I2J3); Cytochrome P450 2C9 (Homo sapiens, UniProt P11712); Cytochrome P450 2D6 (Homo sapiens, UniProt P10635).
For assay [1], the target named is Lysosomal acid glucosylceramidase (Homo sapiens, UniProt P04062). Put plainly: Dose response cell-based high throughput screening assay to identify enhancers of beta-glucosidase activity. [Related pubchem assays: 784 ]. It counts as functional.
Assay [2] addresses Peroxisome proliferator-activated receptor gamma/Nuclear receptor coactivator 2 (Homo sapiens, UniProt P37231). The format is functional.
Assay [3] addresses T1, Alkaline phosphatase, tissue-nonspecific isozyme (Homo sapiens, UniProt P05186).
T1 sequence (P05186 whole entry): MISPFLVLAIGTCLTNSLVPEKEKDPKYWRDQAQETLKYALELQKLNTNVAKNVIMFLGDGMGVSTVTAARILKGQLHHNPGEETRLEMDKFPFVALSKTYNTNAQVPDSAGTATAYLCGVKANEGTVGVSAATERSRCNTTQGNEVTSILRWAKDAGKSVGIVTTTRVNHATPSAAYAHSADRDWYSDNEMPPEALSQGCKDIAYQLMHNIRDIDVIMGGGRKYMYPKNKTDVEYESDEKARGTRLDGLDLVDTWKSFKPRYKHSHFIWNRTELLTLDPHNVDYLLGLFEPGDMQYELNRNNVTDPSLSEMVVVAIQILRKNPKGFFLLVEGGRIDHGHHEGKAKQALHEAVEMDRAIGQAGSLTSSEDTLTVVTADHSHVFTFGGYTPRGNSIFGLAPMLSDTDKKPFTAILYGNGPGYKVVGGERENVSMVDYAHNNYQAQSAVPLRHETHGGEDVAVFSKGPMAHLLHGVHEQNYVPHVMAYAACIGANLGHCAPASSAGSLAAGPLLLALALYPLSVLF

The target in assay [4] is Peroxisome proliferator-activated receptor gamma/Nuclear receptor coactivator 1 (Homo sapiens, UniProt P37231). It counts as functional.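 Note: agonist potency as compounds enhance coactivator SRC-1 recruitment to PPARgamma.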
For assay [5], the target named is Peroxisome proliferator-activated receptor gamma/Nuclear receptor coactivator 3 (Homo sapiens, UniProt P37231). The format is functional.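 Note: agonist potency for raising coactivator recruitment to the receptor.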
The test system of assay [6] is Vero. Put plainly: Vero cell viability after compound exposure – synthesized analogs, set II, cytotoxicity control for West Nile virus antiviral project, SAR follow-up (AID 2402). The format is functional. As to conditions: Chlorocebus sabaeus.
For assay [7], the system named is Vero. Put plainly: host cell viability loss, Vero E6 – synthesized analogs, cytotoxicity control for West Nile virus antiviral project, SAR follow-up (AID 2244). The conditions noted are these: Chlorocebus sabaeus. The format is functional.
The target of assay [8] is T2, Voltage-dependent T-type calcium channel subunit alpha-1H (Homo sapiens, UniProt O95180). Put plainly: Inhibitors of T-Type Calcium Channels. [Related pubchem assays (depositor defined):AID449739, AID463087, AID489005, AID493041, AID504579, AID504584, AID504619, AID504628]. The format is functional.
For assay [9], the target named is T3, Heat shock factor protein 1 (Mus musculus, UniProt P38532).
T3 sequence (P38532 whole entry): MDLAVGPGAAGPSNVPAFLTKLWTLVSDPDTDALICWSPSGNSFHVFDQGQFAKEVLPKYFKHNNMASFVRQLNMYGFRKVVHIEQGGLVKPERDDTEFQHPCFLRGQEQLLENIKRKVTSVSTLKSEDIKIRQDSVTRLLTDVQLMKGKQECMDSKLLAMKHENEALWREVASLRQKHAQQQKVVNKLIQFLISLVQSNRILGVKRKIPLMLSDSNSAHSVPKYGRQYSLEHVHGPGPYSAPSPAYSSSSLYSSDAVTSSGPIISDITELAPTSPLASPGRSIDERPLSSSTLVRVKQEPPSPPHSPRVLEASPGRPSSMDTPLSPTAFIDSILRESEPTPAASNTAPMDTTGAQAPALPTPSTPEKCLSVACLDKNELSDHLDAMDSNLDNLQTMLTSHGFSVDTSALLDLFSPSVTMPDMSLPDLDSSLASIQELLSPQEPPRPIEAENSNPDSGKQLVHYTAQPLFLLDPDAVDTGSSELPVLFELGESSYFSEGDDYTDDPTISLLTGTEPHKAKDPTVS
Put plainly: decrease of HSF1-responsive luciferase luminescence – cell-based, NIH3T3, dose retest, confirmation (AID 2382).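 Note: NIH3T3 fibroblasts with HSF1-driven luciferase reporter stressed by proteasome inhibitor MG132; luminescence from HSF1-driven luciferase expression after 8 hours of MG132 stress.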 It counts as functional.

The target in assay [10] is T2, Voltage-dependent T-type calcium channel subunit alpha-1H. It counts as functional.
The target in assay [11] is T4, Calpain-2 catalytic subunit (Sus scrofa, UniProt P43367).
T4 sequence (P43367 whole entry): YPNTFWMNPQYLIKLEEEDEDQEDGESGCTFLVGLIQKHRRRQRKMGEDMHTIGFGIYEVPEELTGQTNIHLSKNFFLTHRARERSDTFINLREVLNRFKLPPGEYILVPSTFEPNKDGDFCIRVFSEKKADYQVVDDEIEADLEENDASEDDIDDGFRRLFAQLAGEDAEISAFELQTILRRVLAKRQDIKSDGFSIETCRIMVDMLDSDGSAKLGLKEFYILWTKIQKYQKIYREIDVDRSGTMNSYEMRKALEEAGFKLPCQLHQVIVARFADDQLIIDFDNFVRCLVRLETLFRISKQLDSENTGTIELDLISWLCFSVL
Put plainly: m-calpain protease blockers, concentration series – biochemical, fluorogenic peptide substrate, dose response (AID 1420). The format is functional.

A further assay concerns the target T5, Cytochrome P450 1A2 (Homo sapiens, UniProt P05177).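 Note: PubChem cytochrome P450 panel assay, CYP1A2 panel member.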
T5 sequence (P05177 whole entry): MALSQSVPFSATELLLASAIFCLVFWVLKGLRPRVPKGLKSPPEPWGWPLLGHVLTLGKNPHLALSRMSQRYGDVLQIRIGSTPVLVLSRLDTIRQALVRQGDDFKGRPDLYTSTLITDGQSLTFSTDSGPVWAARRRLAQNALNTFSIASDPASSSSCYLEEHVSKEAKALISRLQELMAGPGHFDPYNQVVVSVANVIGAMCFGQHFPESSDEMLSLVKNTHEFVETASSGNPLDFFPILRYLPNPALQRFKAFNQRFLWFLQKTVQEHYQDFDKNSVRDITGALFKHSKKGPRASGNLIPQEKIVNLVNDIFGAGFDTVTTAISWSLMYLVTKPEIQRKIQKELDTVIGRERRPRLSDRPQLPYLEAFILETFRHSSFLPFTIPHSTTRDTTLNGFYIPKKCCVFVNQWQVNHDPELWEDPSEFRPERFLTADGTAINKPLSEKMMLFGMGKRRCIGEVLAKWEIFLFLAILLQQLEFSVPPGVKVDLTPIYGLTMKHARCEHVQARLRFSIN

A further assay concerns the target Cytochrome P450 2C19 (Homo sapiens, UniProt P33261). Put plainly: Cytochrome panel assay with activity outcomes. Panel member name: p450-cyp2c19 Compounds with AC50 equal or less than 10 uM are considered active. The format is functional. As to conditions: read-out: AC50.
The target in assay [12] is Intestinal-type alkaline phosphatase (Homo sapiens, UniProt P09923). Put plainly: Dose Response confirmation of uHTS hits from a small molecule inhibitors of human intestinal alkaline phosphatase via a luminescent assay. [Related pubchem assays (depositor defined):AID2544, AID2574]. It counts as functional.
The target in assay [13] is T6, Orexin/Hypocretin receptor type 1 (Homo sapiens, UniProt O43613).
T6 sequence (O43613 whole entry): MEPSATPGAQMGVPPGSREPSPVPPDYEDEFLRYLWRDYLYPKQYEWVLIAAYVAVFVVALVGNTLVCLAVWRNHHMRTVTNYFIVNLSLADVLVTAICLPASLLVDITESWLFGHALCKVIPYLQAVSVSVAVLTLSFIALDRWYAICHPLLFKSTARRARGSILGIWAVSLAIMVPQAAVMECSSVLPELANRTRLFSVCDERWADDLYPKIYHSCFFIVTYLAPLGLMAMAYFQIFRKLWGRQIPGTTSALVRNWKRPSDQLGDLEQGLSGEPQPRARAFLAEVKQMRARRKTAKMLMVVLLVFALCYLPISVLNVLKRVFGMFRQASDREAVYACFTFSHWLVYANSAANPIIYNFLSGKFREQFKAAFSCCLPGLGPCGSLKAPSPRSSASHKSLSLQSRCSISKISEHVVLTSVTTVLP
Put plainly: Homogeneous Time Resolved Fluorescence (HTRF)-based cell-based high throughput dose response assay for antagonists of the orexin 1 receptor (OX1R; HCRTR1). [Related pubchem assays (depositor defined):AID434989, AID435008, AID463079, AID485270, AID492963, AID492964, AID492965, AID493232, AID504717, AID504718]. It counts as functional.

Assay [14] is described as follows: Counterscreen for antagonists of the orexin 1 receptor (OX1R; HCRTR1): Fluorescence-based cell-based high throughput dose response assay to identify antagonists of the parental CHO cell line. [Related pubchem assays (depositor defined):AID434989, AID435008, AID463079, AID485270, AID492963, AID492964, AID492965, AID493232, AID504699, AID504701]. It counts as functional.

Assay [15] has as its target T7, Orexin receptor type 2 (Homo sapiens, UniProt O43614).
T7 sequence (O43614 whole entry): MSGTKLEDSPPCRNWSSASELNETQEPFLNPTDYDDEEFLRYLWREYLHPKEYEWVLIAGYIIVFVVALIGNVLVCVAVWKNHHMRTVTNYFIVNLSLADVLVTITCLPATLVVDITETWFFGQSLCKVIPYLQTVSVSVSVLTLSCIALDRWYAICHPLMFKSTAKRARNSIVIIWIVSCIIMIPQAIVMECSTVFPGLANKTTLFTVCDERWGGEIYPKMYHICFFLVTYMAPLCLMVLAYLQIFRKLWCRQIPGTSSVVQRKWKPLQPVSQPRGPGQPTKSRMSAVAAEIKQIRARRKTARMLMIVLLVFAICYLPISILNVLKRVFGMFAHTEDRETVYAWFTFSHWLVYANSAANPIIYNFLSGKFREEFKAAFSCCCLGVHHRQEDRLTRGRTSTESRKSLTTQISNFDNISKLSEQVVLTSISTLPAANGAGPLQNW
Put plainly: Counterscreen assay for antagonists of the orexin 1 receptor (OX1R; HCRTR1): Homogeneous Time Resolved Fluorescence (HTRF)-based cell-based dose response assay for antagonists of the orexin 2 receptor (OX2R; HCRTR2), run by assay provider. It counts as functional.

The next assay has as its system CHO-K1. Put plainly: Counterscreen for antagonists of the orexin 1 receptor (OX1R; HCRTR1): Homogeneous time resolved fluorescence (HTRF)-based cell-based dose response assay to identify antagonists of the parental CHO-K1 cell line. [Related pubchem assays (depositor defined):AID434989, AID435008, AID463079, AID485270, AID492963, AID492964, AID492965, AID493232, AID504699, AID504701]. The conditions noted are these: Cricetulus griseus. The format is functional.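 Note: potency for inhibition of ATP-stimulated IP1 production as antagonists.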

A short description of assay [16]: A Cell Based Secondary Assay To Explore Cytotoxicity of Compounds that Sensitize Mycobacterium Tuberculosis to Beta-Lactam Antibiotics. It counts as functional.
Assay [17] has as its target T6, Orexin/Hypocretin receptor type 1. Put plainly: Fluorescence-based cell-based high throughput dose response assay for antagonists of the orexin 1 receptor (OX1R; HCRTR1). [Related pubchem assays (depositor defined):AID434989, AID435008, AID463079, AID485270, AID492963, AID492964, AID492965, AID493232, AID504717, AID504718]. It counts as functional.
The target in assay [18] is T7, Orexin receptor type 2. Put plainly: Counterscreen assay for antagonists of the orexin 1 receptor (OX1R; HCRTR1): Fluorescence-based cell-based dose response assay for antagonists of the orexin 2 receptor (OX2R; HCRTR2), run by assay provider. The format is functional.

T2 sequence (O95180 whole entry): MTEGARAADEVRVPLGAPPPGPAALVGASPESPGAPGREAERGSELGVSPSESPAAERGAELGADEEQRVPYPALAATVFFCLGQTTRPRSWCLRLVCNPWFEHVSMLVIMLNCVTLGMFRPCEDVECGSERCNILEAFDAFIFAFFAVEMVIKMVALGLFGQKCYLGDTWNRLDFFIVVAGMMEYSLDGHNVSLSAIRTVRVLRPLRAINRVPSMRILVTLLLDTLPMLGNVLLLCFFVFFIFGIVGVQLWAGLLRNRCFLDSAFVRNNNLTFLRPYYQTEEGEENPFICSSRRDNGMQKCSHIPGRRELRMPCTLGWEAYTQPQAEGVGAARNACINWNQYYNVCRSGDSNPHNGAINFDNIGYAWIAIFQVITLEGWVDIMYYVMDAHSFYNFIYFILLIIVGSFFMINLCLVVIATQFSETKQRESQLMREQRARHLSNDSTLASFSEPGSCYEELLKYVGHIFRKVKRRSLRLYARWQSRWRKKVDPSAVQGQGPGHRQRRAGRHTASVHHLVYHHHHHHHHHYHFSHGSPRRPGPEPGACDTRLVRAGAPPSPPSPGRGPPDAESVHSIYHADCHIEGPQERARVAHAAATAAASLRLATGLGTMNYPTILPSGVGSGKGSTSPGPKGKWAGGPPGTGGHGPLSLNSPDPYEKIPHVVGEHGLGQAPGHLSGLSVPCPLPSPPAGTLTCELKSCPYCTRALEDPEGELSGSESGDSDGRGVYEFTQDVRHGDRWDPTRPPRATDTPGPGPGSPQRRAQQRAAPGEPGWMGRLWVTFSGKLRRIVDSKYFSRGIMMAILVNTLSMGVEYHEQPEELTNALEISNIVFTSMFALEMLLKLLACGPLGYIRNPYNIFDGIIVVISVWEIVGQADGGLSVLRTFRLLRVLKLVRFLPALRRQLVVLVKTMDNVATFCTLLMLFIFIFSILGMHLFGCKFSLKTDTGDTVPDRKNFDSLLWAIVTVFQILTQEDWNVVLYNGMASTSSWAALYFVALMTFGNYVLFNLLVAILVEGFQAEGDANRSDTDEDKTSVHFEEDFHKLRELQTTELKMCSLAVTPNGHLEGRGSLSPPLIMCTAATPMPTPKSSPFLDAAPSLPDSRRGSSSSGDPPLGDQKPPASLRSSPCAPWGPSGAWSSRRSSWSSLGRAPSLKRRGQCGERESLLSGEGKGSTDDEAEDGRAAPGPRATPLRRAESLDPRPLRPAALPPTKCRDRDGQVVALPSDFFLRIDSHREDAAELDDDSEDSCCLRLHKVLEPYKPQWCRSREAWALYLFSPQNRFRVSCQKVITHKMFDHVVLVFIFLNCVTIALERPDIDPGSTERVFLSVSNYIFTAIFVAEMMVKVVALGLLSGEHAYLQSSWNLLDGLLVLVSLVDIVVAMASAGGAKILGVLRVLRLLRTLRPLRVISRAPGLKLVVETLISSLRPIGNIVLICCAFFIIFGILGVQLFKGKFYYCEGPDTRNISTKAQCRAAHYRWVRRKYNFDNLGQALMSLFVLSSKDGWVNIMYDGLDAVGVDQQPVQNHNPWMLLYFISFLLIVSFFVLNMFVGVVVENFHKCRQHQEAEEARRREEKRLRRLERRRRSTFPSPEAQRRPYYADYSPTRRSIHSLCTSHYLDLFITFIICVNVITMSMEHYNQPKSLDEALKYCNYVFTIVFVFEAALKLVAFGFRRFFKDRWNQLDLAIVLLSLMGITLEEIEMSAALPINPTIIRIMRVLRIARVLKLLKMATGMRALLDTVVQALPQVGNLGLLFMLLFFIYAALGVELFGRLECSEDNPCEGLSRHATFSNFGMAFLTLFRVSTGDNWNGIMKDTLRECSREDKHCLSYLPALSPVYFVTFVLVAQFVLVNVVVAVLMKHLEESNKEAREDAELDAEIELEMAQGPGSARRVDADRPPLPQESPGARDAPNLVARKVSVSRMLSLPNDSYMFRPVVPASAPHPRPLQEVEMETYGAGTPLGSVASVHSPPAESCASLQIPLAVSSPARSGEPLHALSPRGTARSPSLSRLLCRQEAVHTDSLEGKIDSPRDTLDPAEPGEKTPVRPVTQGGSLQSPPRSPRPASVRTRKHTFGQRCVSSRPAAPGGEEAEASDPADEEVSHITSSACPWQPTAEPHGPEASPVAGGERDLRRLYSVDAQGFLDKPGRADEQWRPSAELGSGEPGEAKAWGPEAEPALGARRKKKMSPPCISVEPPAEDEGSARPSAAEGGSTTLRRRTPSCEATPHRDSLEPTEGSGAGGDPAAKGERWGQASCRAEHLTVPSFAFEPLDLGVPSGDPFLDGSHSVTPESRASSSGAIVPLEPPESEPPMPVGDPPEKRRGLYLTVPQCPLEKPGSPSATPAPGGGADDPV
Lysosomal acid glucosylceramidase, sequence (P04062 whole entry): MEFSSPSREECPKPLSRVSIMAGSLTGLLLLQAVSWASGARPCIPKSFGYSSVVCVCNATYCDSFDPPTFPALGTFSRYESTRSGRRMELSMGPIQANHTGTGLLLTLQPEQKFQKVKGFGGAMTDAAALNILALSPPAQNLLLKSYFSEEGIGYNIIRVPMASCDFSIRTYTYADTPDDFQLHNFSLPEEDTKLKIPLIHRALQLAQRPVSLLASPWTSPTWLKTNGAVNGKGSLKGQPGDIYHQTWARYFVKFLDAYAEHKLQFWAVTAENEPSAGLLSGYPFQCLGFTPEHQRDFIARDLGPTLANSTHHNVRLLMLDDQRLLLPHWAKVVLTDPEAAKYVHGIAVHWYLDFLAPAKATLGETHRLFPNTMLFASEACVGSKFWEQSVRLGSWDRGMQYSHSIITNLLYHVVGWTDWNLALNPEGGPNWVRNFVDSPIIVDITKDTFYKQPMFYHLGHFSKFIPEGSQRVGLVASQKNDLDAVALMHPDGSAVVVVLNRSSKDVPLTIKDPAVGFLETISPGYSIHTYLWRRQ
Procathepsin L, sequence (P07711 whole entry): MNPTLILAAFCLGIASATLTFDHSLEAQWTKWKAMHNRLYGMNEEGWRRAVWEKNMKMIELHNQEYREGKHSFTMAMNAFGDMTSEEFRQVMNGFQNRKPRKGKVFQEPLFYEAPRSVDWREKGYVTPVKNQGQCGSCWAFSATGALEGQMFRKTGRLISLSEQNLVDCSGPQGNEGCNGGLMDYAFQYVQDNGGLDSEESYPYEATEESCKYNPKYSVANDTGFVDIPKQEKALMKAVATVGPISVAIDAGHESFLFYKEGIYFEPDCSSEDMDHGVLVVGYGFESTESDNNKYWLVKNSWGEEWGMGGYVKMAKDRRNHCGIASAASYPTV
Cytochrome P450 2C9, sequence (P11712 whole entry): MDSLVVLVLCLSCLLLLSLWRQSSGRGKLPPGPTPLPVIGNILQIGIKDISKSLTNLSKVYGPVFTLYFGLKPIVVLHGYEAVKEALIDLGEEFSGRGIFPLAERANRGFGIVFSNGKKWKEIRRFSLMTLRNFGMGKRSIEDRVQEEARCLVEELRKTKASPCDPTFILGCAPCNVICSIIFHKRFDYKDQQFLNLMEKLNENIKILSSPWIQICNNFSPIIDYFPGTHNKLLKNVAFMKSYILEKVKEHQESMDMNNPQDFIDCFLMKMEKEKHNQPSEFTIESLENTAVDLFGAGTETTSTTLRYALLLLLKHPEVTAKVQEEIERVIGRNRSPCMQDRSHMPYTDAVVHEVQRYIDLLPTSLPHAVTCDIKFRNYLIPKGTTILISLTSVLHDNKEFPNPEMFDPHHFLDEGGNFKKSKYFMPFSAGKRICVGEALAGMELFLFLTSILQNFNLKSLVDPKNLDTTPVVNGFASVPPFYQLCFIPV
Aspartyl aminopeptidase, sequence (Q8I2J3 whole entry): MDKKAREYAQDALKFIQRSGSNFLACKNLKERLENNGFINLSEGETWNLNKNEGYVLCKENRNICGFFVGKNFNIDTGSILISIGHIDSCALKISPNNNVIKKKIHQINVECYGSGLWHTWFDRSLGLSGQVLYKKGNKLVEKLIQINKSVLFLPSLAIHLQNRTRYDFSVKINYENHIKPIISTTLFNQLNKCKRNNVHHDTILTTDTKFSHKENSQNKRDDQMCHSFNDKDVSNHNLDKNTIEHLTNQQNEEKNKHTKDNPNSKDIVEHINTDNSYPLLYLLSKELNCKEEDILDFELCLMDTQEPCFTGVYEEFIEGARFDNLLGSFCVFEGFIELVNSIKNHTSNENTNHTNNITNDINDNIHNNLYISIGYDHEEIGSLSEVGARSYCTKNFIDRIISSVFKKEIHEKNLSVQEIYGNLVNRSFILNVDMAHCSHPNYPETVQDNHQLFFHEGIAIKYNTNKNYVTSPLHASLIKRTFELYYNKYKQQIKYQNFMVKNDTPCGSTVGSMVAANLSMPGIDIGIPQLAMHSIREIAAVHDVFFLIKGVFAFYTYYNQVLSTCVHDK
Cytochrome P450 2C19, sequence (P33261 whole entry): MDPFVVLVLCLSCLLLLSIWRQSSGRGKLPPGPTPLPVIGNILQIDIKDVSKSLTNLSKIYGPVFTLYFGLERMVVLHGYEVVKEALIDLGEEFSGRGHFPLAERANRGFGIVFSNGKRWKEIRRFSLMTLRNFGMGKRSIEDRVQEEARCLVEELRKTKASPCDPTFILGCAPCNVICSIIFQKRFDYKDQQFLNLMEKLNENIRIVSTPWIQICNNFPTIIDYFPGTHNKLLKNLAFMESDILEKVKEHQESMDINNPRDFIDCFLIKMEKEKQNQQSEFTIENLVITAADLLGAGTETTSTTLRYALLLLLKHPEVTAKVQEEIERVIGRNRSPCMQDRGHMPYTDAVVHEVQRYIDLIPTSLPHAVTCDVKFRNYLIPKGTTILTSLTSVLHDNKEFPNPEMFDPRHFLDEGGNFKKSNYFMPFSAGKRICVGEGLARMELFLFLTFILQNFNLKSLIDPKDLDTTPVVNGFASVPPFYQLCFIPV

In the case of `COc1cccc(C(=O)NC(=S)Nn2cnnc2)c1OC`, the figures for the IC50 at Procathepsin L and at Aspartyl aminopeptidase were > 59.6 µM (not active) and 2.08 µM (active), respectively.
On to `COC(=O)CN1C(=O)C2(OCCCO2)c2cc(Br)ccc21`, for which the EC50 in [1] was > 10 µM (not active).
With `COc1ccc2nc(C)cc(SCC(=O)Nc3c(C)cccc3C)c2c1`, the EC50 is reported as > 79.4 µM (not active) in assay [2], > 100 µM (not active) in [3], > 79.4 µM (not active) in [4] and > 79.4 µM (not active) in assay [5].
Consider `COc1ccc(-c2csc(N(Cc3ccccc3)C(=O)c3ccccc3Cl)n2)cc1`, for which the CC50 with Vero [6] is > 100 µM (active); in the assay with Vero [7] it was > 40 µM (active).
As to `O=C(CCCCCCN1C(=O)c2ccccc2C1=O)N1CCC(c2ccccc2)C1` (stereo not drawn), the EC50 was 1.81 µM (active) in assay [8], > 195 µM (not active) in assay [9] and 0.624 µM (active) in assay [10]. The IC50 in assay [11] was 7.71 µM (active).
As for `COc1ccc2nc(C)cc(SCC(=O)NNC(=O)COc3ccccc3)c2c1`, the AC50 on Cytochrome P450 1A2 is 10 µM (inconclusive); at Cytochrome P450 2C9, 10 µM (inconclusive); at Cytochrome P450 2C19 it was 3.55 µM (inconclusive); at Cytochrome P450 2D6 it was 10 µM (inconclusive). For the same compound, the EC50 in assay [3] was 79.5 µM (not active).
In the case of `Cc1c(Cl)cccc1NC(=O)Nn1cnnc1`, the IC50 against Procathepsin L is > 59.6 µM (not active); on Aspartyl aminopeptidase, 1.87 µM (active).
With `Cc1ccc(Cl)cc1N1CCN(C(=O)C2(S(=O)(=O)c3ccc(Cl)cc3)CC2)CC1`, the figures for the EC50 in [8] and in assay [10] were 5.26 µM (active) and 0.928 µM (active), respectively.
Consider `CC(/C=N/NC(=O)CCn1nnc2ccccc21)=C\c1ccccc1`, for which, in assay [12], the IC50 was > 100 µM (inactive).
Consider `CCn1c2ccccc2c2cc(NC(=O)c3cccc(OC)c3OC)ccc21`, for which the IC50 is 1.7 µM (active) in assay [13]; > 49.8 µM (inactive) in [14]; > 50 µM (inactive) on Orexin receptor type 2 [15]; > 66.2 µM (inactive) with CHO-K1; 3.08 µM (active) in assay [17]; > 88.8 µM (inactive) on Orexin receptor type 2 [18]. In addition, the CC50 in assay [16] was > 40 µM (active).
For the compound `COc1ccc2c(c1)-c1ccccc1S(=O)(=O)N2C(C)=O`, the AC50 at Cytochrome P450 2C9 was 12.6 µM (inconclusive); on Cytochrome P450 2C19 it was 25.1 µM (inconclusive). Moreover, the EC50 in assay [1] is on record as > 50 µM (not active).

For the origin of these results see ChEMBL document CHEMBL1201862, “PubChem BioAssay data set” (2004).
